Earlier results, collected in patent US20200268761A1 (CIPLA LIMITED, priority 2017, published 2020).

Legend:
[1] = molecular target: CYP3A4 (Homo sapiens, UniProt P08684); details: major drug metabolizing enzyme
[2] = molecular target: p-glycoprotein (Homo sapiens, UniProt P08183)
Chain of p-glycoprotein (P08183 whole entry): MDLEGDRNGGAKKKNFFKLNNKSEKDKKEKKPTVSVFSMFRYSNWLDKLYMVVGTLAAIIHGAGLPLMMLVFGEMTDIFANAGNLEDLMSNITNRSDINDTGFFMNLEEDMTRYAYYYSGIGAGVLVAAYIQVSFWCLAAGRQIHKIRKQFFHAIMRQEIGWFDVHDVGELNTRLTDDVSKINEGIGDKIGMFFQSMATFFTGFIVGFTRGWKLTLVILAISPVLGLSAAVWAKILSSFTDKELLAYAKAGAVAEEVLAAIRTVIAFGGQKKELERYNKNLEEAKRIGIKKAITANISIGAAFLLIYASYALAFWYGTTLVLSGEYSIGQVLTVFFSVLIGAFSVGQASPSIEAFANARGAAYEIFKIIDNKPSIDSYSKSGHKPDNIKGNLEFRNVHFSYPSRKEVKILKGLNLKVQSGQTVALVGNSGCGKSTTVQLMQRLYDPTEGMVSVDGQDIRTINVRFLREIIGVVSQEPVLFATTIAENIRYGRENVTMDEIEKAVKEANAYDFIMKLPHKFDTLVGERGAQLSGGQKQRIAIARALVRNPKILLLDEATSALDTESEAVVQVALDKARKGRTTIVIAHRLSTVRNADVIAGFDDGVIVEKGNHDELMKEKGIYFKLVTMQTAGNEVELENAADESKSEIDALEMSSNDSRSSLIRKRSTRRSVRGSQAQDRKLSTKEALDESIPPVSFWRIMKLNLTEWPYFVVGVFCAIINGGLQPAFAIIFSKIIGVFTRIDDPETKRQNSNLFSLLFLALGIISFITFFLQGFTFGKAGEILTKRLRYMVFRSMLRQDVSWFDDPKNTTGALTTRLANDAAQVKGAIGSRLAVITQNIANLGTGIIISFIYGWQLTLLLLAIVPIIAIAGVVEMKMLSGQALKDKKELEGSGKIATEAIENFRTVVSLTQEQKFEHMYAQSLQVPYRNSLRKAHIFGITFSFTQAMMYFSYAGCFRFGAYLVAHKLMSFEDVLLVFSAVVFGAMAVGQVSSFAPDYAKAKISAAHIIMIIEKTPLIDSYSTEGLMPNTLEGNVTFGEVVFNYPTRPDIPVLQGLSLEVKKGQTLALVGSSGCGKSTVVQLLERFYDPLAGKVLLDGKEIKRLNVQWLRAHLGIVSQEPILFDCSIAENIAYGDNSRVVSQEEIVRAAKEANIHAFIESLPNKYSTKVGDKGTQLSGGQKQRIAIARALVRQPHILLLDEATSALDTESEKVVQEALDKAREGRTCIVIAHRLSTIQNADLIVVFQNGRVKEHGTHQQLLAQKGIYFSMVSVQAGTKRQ

Chain of CYP3A4 (P08684 whole entry, species assumed): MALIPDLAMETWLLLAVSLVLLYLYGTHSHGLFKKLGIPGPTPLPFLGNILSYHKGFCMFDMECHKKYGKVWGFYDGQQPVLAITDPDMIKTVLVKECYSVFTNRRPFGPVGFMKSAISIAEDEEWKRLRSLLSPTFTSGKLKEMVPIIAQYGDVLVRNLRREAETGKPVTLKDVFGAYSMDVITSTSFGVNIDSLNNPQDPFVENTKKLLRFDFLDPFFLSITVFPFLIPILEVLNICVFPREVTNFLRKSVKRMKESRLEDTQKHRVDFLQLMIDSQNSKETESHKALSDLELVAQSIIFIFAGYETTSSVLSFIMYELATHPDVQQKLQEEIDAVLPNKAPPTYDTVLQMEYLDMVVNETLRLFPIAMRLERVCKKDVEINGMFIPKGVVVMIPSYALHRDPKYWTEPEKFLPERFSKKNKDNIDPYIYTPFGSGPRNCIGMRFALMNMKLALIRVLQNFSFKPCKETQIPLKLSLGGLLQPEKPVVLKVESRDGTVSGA

C=CC(=O)N1CCC[C@@H](n2nc(-c3ccc(Oc4ccccc4)cc3)c3c(N)ncnc32)C1 [Ibrutinib]
solubility in HCl at pH 1.2 (HCl, pH 1.2): slightly soluble
solubility in N,N-dimethylformamide, tetrahydrofuran and dichloromethane (N,N-dimethylformamide, tetrahydrofuran, dichloromethane): freely soluble
solubility in acetone and methanol (acetone, methanol): soluble
solubility in ethyl acetate, ethanol and acetonitrile (ethyl acetate, ethanol, acetonitrile): sparingly soluble
solubility in non-polar solvents (non-polar solvents such as hexane and heptanes): practically insoluble
solubility in water (water, ibrutinib base): practically insoluble

O=C(/C=C/C=C/c1ccc2c(c1)OCO2)N1CCCCC1 [Piperine, (E.E.) 1˜[5,3-benzodioxyl-5-yl)-1-oxo-2,4-pentadienyl-piperidine]
inhibition of CYP3A4 [1]: inhibits
inhibition of p-glycoprotein [2]: inhibits
